Data published in paper PMC7354843 (Journal of medicinal chemistry, 2020).

Experiment: In vivo pharmacokinetic study, plasma and liver, single oral dose in mice
Settings: male, ICR, mouse, plasma, 80 mg/kg

AUC(0-inf): 508 ng·h/mL | Cmax: 17.2 ng/mL
SMILES: O=c1c2ccc(Oc3ccc(OC(F)(F)F)cc3)cc2[nH]c2cc(Cl)cc(F)c12 [Compound 26, 3-Chloro-1-fluoro-6-(4-(trifluoromethoxy)phenoxy)acridin-9(10H)-one]
